Measured values as given in ChEMBL document CHEMBL1255173, “Dihydro-resveratrol--a potent dietary polyphenol” (Bioorg Med Chem Lett, 2010).
Calls of active or inactive are those of the source. The calls are words filed in the database; no cut-off is given here.

Key:
Assay type in all cases: functional, cell-based
[1] = test system: K562; assay: Cytotoxicity against human K562 cells after 48 hrs by MTT assay; details: K562, 48 h
[2] = test system: BT-474; assay: Cytotoxicity against human BT474 cells after 48 hrs by MTT assay
[3] = test system: MDA-MB-231; assay: Cytotoxicity against human MDA-MB-231 cells after 48 hrs by MTT assay
[4] = test system: MCF7; assay: Cytotoxicity against human MCF7 cells after 48 hrs by MTT assay; details: MCF7, 48 h

SMILES	IC50 [1] [nM]	Activity [2]	Activity [3]	IC50 [4] [nM]
Oc1ccc(CCc2cc(O)cc(O)c2)cc1 [DIHYDRORESVERATROL]	< 1000	inactive	inactive	
O=c1c(-c2ccc(O)cc2)coc2cc(O)cc(O)c12 [GENISTEIN]				1000
